Test results reported in patent US10167257B2, “Indole derivatives for use in medicine” (IOmet Pharma Ltd., priority 2014, dated 2019).

Tests used:
[1] = target: T1, TDO (A172 cells) (Homo sapiens, UniProt P48775); experiment: TDO cell-based assay (A172), kynurenine production; details: A172 human glioblastoma cells, 500 μM L-Trp, 48 h, kynurenine by absorbance at 490 nm
T1 construct: This assay utilised cancer cells which expressed either TDO or IDO; host or cells: A172 human glioblastoma cells
T1 sequence (P48775 whole entry): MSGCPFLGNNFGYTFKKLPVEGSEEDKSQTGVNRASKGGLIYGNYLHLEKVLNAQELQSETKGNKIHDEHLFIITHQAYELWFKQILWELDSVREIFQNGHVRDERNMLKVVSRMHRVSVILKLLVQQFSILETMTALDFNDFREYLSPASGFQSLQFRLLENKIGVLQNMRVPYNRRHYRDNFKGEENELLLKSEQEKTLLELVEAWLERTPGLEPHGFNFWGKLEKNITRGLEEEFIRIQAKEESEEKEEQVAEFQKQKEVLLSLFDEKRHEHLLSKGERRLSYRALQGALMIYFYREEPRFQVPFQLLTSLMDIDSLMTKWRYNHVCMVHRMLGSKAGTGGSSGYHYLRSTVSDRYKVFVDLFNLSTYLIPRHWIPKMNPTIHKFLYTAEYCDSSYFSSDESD
From the text: (§1) Two different types of assay were employed: 1. A TDO and IDO biochemical coupled assay which utilised recombinantly produced and purified TDO and IDO enzymes in combination with the enzyme formamidase. This coupled enzyme system allowed conversion of N-formylkynurenine produced by TDO or IDO activity to kynurenine which was then quantified by fluorescence following addition of Erhlich's Reagent. 2. A cell-based assay for detecting the effect of test compounds on kynurenine production in two different cancer cell types. This assay utilised cancer cells which expressed either TDO or IDO and as such was used as a means of testing compound activity at these two enzymes in a cell-based context. The protocols for these are set out below.
(§2) A172 human glioblastoma (ATCC) were grown in DMEM+2 mM L-glutamine medium supplemented with 10% foetal bovine serum and SKOV-3 ovary adenocarcinoma (ATCC) cells were grown in McCoys 5A+L-glutamax medium supplemented with 15% foetal bovine serum. On the day of assay, cells were detached using trypsin-EDTA (0.25% v/v), re-suspended in assay media (RPMI 1640 phenol red free+L-glutamine supplemented with 10% dialysed foetal bovine serum). A172 cells were seeded at 30K cells per well and SKOV-3 cells at 40K cells per well into 96-well plates containing test samples/vehicle control together with 500 μM L-Trp. Cells were then incubated for 48 h at 37° C., 5% CO2. In SK-OV-3 cells, IFNγ was also added at 500 ng/ml for the 48 h incubation in order to induce expression of IDO. Plates were centrifuged and the supernatant was removed and incubated for 5 min in the presence of 1% Erhlich's reagent. Kynurenine levels were then quantified by measuring absorbance at 490 nm.

[2] = target: T2, IDO (SKOV-3 cells) (Homo sapiens, UniProt P14902); experiment: IDO cell-based assay (SKOV-3, IFNγ-induced), kynurenine production; details: SKOV-3 ovary adenocarcinoma cells, IFNγ 500 ng/ml, 500 μM L-Trp, 48 h, kynurenine by absorbance at 490 nm
T2 construct: This assay utilised cancer cells which expressed either TDO or IDO; host or cells: SKOV-3 ovary adenocarcinoma cells, IFNγ-induced
T2 sequence (P14902 whole entry): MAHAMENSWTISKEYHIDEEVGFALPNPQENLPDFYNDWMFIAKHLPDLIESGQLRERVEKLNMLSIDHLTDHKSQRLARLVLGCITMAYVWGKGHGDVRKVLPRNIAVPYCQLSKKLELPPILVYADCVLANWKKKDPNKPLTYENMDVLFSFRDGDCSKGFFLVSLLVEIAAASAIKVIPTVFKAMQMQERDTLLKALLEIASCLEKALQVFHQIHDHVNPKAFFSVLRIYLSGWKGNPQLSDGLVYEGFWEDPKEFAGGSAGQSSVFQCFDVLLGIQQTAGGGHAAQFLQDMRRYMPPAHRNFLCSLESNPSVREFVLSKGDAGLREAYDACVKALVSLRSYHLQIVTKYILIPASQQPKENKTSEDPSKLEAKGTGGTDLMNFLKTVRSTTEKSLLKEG
From the text: as §1, §2

Compound | TDO cellular assay (A172) pIC50 [1] | IDO cellular assay (SKOV3) pIC50 [2] | IC50 ([1]; read-out: TDO cellular assay (A172) pIC50 (converted)) [µM] | IC50 ([2]; read-out: IDO cellular assay (SKOV3) pIC50 (converted)) [µM]
C[C@H](NC(=O)c1cc2c([nH]1)CCCC2)c1ccccc1 [Compound 55] | + (+ = pIC50 4.50-<5.00) | − (− = pIC50 <4.50) | – | –
COc1ccc2cc(C(=O)N[C@H](C)c3ccccc3)[nH]c2c1 [Compound 159] | − (− = pIC50 <4.50) | ++ (++ = pIC50 5.00-<5.50) | – | –
CC(NC(=O)c1cc2cc(Cl)ccc2[nH]1)c1ccccc1 (stereo not shown) [Compound 25] | +++ (+++ = pIC50 ≥5.50) | +++ (+++ = pIC50 ≥5.50) | – | –
COc1ccc2cc(C(=O)NC3(c4ccccc4)CC3)[nH]c2c1 [Compound 162] | − (− = pIC50 <4.50) | ++ (++ = pIC50 5.00-<5.50) | – | –
CC(C)NC(=O)c1cc2cc(Cl)ccc2[nH]1 [Compound 67] | ++ (++ = pIC50 5.00-<5.50) | + (+ = pIC50 4.50-<5.00) | – | –
Cc1nc(C2(NC(=O)c3cc4cc(Cl)ccc4[nH]3)CC2)co1 [Compound 225] | − (− = pIC50 <4.50) | +++ (+++ = pIC50 ≥5.50) | – | –
O=C(NCc1nc(-c2ccccc2)no1)c1cc2cc(Cl)ccc2[nH]1 [Compound 129] | − (− = pIC50 <4.50) | ++ (++ = pIC50 5.00-<5.50) | – | –
Cc1ncc(C(C)NC(=O)c2cc3cc(C#N)ccc3[nH]2)o1 (stereo not shown) [Compound 229] | +++ (+++ = pIC50 ≥5.50) | +++ (+++ = pIC50 ≥5.50) | – | –
O=C(NC1(c2ccc(Cl)cc2)CC1)c1cc2cc(Cl)ccc2[nH]1 [Compound 148] | + (+ = pIC50 4.50-<5.00) | +++ (+++ = pIC50 ≥5.50) | – | –
O=C(NC1(c2ccccc2)COC1)c1cc2cc(Cl)cnc2[nH]1 [Compound 171] | − (− = pIC50 <4.50) | +++ (+++ = pIC50 ≥5.50) | – | –
Cc1nnc(C(C)NC(=O)c2cc3cc(Cl)ccc3[nH]2)o1 (stereo not shown) [Compound 184] | − (− = pIC50 <4.50) | ++ (++ = pIC50 5.00-<5.50) | – | –
COc1ccc(-n2cc(C(C)NC(=O)c3cc4cc(Cl)ccc4[nH]3)cn2)cc1OC (stereo not shown) [Compound 207] | + (+ = pIC50 4.50-<5.00) | +++ (+++ = pIC50 ≥5.50) | – | –
O=C(NCc1cccs1)c1cc2ccccc2[nH]1 [Compound 13] | − (− = pIC50 <4.50) | + (+ = pIC50 4.50-<5.00) | – | –
Cn1cc(C2(NC(=O)c3cc4c(F)c(Cl)ccc4[nH]3)CC2)cn1 [Compound 191] | − (− = pIC50 <4.50) | +++ (+++ = pIC50 ≥5.50) | – | –
COc1cccc(-n2cc(CNC(=O)c3cc4cc(Cl)ccc4[nH]3)cn2)c1 [Compound 112] | − (− = pIC50 <4.50) | +++ (+++ = pIC50 ≥5.50) | – | –
C[C@@H](NC(=O)c1cc2cc(OC(F)(F)F)ccc2[nH]1)c1ccccc1 [Compound 247] | − (− = pIC50 <4.50) | +++ (+++ = pIC50 ≥5.50) | – | –
COc1cccc(-n2cc(C(C)NC(=O)c3cc4cc(Cl)ccc4[nH]3)cn2)c1 (stereo not shown) [Compound 125] | + (+ = pIC50 4.50-<5.00) | +++ (+++ = pIC50 ≥5.50) | – | –
Cn1cc(C2(NC(=O)c3cc4cc(C(F)(F)F)ccc4[nH]3)CC2)cn1 [Compound 168] | + (+ = pIC50 4.50-<5.00) | +++ (+++ = pIC50 ≥5.50) | – | –
Cc1nc(C2(NC(=O)c3cc4cc(C#N)ccc4[nH]3)CC2)co1 [Compound 226] | − (− = pIC50 <4.50) | +++ (+++ = pIC50 ≥5.50) | – | –

Compound | TDO cellular assay (A172) pIC50 [1] | IDO cellular assay (SKOV3) pIC50 [2] | IC50 ([1]; read-out: TDO cellular assay (A172) pIC50 (converted)) [µM] | IC50 ([2]; read-out: IDO cellular assay (SKOV3) pIC50 (converted)) [µM]
O=C(NC1(c2ccccc2)COC1)c1cc2cc(Cl)cc(F)c2[nH]1 [Compound 227] | ++ (++ = pIC50 5.00-<5.50) | +++ (+++ = pIC50 ≥5.50) | – | –
CC(C)(NC(=O)c1cc2cc(Cl)ccc2[nH]1)c1ccccc1 [Compound 68] | ++ (++ = pIC50 5.00-<5.50) | +++ (+++ = pIC50 ≥5.50) | – | –
O=C(NC1(c2ccccc2)CC1)C1Cc2cc(Cl)ccc2N1 (stereo not shown) [Compound 246] | + (+ = pIC50 4.50-<5.00) | +++ (+++ = pIC50 ≥5.50) | – | –
O=C(NC1(c2ccccc2)COC1)c1cc2c(F)c(Cl)ccc2[nH]1 [Compound 220] | − (− = pIC50 <4.50) | +++ (+++ = pIC50 ≥5.50) | – | –
C[C@@H](NS(=O)(=O)c1cc2cc(F)ccc2[nH]1)c1ccccc1 [Compound 127] | − (− = pIC50 <4.50) | + (+ = pIC50 4.50-<5.00) | – | –
O=C(NC1(C2CCOCC2)CC1)c1cc2cc(Cl)ccc2[nH]1 [Compound 144] | + (+ = pIC50 4.50-<5.00) | +++ (+++ = pIC50 ≥5.50) | – | –
CC(CCNS(C)(=O)=O)NC(=O)c1cc2cc(Cl)ccc2[nH]1 (stereo not shown) [Compound 122] | − (− = pIC50 <4.50) | ++ (++ = pIC50 5.00-<5.50) | – | –
Cc1ccc2[nH]c(C(=O)NCc3ccc(F)cc3)cc2c1 [Compound 27] | − (− = pIC50 <4.50) | ++ (++ = pIC50 5.00-<5.50) | – | –
Cc1c(C2(NC(=O)c3cc4cc(Cl)ccc4[nH]3)CC2)cnn1C [Compound 198] | − (− = pIC50 <4.50) | +++ (+++ = pIC50 ≥5.50) | – | –
O=C(NC1(c2ccccc2)CC1)c1cc2cc(OC(F)(F)F)ccc2[nH]1 [Compound 248] | − (− = pIC50 <4.50) | +++ (+++ = pIC50 ≥5.50) | – | –
Cc1ncc(C(C)NC(=O)c2cc3cc(Cl)ccc3[nH]2)o1 (stereo not shown) [Compound 228] | ++ (++ = pIC50 5.00-<5.50) | ++ (++ = pIC50 5.00-<5.50) | – | –
O=C(NCc1ccc(Cl)cc1)c1cc2cc(Cl)ccc2[nH]1 [Compound 34] | − (− = pIC50 <4.50) | +++ (+++ = pIC50 ≥5.50) | – | –
CC(NC(=O)c1cc2cc(Cl)ccc2[nH]1)c1ccc(C(=O)N2CCN(C)CC2)cc1 (stereo not shown) [Compound 91] | − (− = pIC50 <4.50) | + (+ = pIC50 4.50-<5.00) | – | –
O=C(NC1(c2ccccc2)CC1)c1cc2cc(Cl)cnc2[nH]1 [Compound 164] | − (− = pIC50 <4.50) | +++ (+++ = pIC50 ≥5.50) | – | –
Cn1cc(C2(NC(=O)c3cc4cc(Cl)ccc4[nH]3)CC2)cn1 [Compound 141] | – | – | > 31.6 | ≤ 3.16
CC(NC(=O)c1cc2ccccc2[nH]1)c1ccc(Cl)cc1 (stereo not shown) [Compound 16] | + (+ = pIC50 4.50-<5.00) | +++ (+++ = pIC50 ≥5.50) | – | –
CCc1ccc2[nH]c(C(=O)NC3(c4ccccc4)CC3)cc2c1 [Compound 242] | − (− = pIC50 <4.50) | +++ (+++ = pIC50 ≥5.50) | – | –
CC(NC(=O)c1cc2cc(C(F)(F)F)ccc2[nH]1)c1cnn(C)c1 (stereo not shown) [Compound 157] | − (− = pIC50 <4.50) | ++ (++ = pIC50 5.00-<5.50) | – | –
CS(=O)(=O)N1CCC(C2(NC(=O)c3cc4cc(Cl)ccc4[nH]3)CC2)CC1 [Compound 161] | − (− = pIC50 <4.50) | +++ (+++ = pIC50 ≥5.50) | – | –
